Activity calls are given as the source filed them.
Legend:
[1] = target: T1, Long-chain-fatty-acid--AMP ligase FadD28 (Mycobacterium tuberculosis, UniProt P9WQ59); experiment: Fluorescence polarization aasay to screen for inhibitors that compete for the binding of FadD28 to a bisubstrate Measured in Biochemical System Using Plate Reader - 2147-01_Inhibitor_Dose_CherryPick_Activity.; assay type: functional, Mycobacterium tuberculosis H37Rv
T1 sequence (P9WQ59 whole entry): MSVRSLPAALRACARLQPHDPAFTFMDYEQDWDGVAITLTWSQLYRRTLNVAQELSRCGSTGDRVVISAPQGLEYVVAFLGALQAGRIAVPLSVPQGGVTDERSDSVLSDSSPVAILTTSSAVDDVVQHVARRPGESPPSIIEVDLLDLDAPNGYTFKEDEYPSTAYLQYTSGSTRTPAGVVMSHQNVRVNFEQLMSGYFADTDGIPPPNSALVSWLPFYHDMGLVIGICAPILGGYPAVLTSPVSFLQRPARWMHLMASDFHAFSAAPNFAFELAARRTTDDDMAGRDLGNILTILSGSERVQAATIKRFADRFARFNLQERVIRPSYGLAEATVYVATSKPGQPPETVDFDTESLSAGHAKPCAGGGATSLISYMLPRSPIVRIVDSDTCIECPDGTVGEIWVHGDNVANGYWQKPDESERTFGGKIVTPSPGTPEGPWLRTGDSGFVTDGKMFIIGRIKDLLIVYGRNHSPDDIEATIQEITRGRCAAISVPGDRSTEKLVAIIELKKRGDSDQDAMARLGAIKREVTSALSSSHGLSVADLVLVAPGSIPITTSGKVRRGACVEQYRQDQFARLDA

[2] = HepG2 cell cytotoxicity, dose response, cytotoxicity control for Shn3 inhibitor project, CellTiter-Glo, cherry-picked (AID 624134); assay type: functional, cell-based
[3] = Shn3 3'UTR reporter inhibitors, dose response, cell-based, Clone20 osteoblasts, firefly luciferase, cherry-picked (AID 624132); assay type: functional;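 note: firefly luciferase luminescence from reporter carrying the Shn3 3'UTR in osteoblasts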
[4] = control 3'UTR Renilla luciferase suppression, dose response, counter-screen for Shn3 inhibitor project, cell-based, Clone20-Shn3RL, cherry-picked (AID 624133); assay type: functional
cells = assay type: functional, cell-based; conditions: HEK-CNG
INS1 = experiment: beta cell apoptosis inhibitors, cytokine rescue, dose response, luminescence, retest (AID 449756); assay type: functional, cell-based; conditions: Rattus norvegicus;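 note: cell death triggered by IL-1 beta plus TNF-alpha plus IFN-gamma mixture; protective hits raise ATP signal compared with cytokine alone wells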
Galanin receptor type 3 = target: T2, Galanin receptor type 3 (Homo sapiens, UniProt O60755); experiment: Fluorescence-based cell-based primary high throughput dose response assay to identify antagonists of the Galanin Receptor 3 (GalR3).; assay type: functional
T2 sequence (O60755 whole entry): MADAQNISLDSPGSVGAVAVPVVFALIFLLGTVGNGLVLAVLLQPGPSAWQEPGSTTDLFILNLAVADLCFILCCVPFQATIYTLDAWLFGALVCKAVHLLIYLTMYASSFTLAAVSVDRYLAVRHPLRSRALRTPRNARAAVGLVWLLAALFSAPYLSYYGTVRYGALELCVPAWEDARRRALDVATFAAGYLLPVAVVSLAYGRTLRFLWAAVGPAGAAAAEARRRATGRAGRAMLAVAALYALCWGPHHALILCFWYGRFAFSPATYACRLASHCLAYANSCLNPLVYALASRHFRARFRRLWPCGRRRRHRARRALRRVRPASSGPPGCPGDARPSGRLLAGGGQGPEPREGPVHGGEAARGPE

[5] = inhibitors of Vif binding to APOBEC3G peptide, primary screen, biochemical, TR-FRET, GST-Vif 1-94, biotin-A3G peptide, dose response retest (AID 1117319); assay type: functional;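 note: TR-FRET signal of purified GST-Vif binding a biotinylated A3G peptide; inhibitors lower the FRET signal by blocking Vif and A3G binding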
[6] = target: T3, Tyrosyl-DNA phosphodiesterase 2 (Homo sapiens, UniProt O95551); experiment: human TDP2 enzyme inhibitors, dose response, biochemical, epi absorbance, IC50 (AID 743297)
T3 sequence (O95551 whole entry): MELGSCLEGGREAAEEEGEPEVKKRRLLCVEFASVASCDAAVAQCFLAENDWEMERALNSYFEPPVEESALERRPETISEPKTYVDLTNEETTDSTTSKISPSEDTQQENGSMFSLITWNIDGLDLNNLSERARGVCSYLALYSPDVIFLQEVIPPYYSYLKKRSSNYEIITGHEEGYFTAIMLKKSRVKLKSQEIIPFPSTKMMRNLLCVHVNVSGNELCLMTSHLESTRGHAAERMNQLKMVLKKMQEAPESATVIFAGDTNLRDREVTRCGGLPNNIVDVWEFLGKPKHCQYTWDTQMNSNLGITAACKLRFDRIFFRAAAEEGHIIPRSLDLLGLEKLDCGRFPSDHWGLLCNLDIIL

[7] = ADAM10 protease inhibitors, dose response, selectivity assay for ADAM17 exosite inhibitor project, biochemical, FRET peptide substrate, recombinant human ADAM10 (AID 743259);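 note: ADAM10 enzyme cleaving a FRET peptide substrate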
[8] = target: Disintegrin and metalloproteinase domain-containing protein 17 (Homo sapiens, UniProt P78536); experiment: exosite inhibitors of ADAM17, dose response, biochemical (AID 743260)
[9] = target: T4, Low molecular weight phosphotyrosine protein phosphatase (Homo sapiens, UniProt P24666); assay type: functional; conditions: read-out: IC50_Mean;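 note: Dose-response confirmation assay measuring inhibition of LMPTP enzyme activity by fluorescence intensity read-out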
T4 sequence (P24666 whole entry): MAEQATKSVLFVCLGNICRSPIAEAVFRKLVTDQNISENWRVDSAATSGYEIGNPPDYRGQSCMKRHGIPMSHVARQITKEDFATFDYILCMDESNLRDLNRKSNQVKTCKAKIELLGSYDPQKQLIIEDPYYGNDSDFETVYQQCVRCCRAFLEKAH

Fatty acid synthase [10] = target: T5, Fatty acid synthase (Homo sapiens, UniProt P49327); experiment: FAS thioesterase domain inhibitors, dose response, biochemical, kinetic fluorescence intensity (AID 624326); assay type: functional;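 note: rate of fluorescence rise from hydrolysis of a fluorogenic O-methyl fluorescein ester substrate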
Fatty acid synthase [11] = target: T5, Fatty acid synthase; experiment: FAS thioesterase domain inhibitors, dose response, biochemical, endpoint fluorescence intensity, uHTS hits (AID 624327); assay type: functional;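 note: fluorescence from hydrolysis of an O-methyl fluorescein acyl ester substrate by the enzyme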
[12] = A2780 ovarian cancer cell cytotoxicity, dose response, cytotoxicity control, plate reader, dry powder samples (AID 743046); assay type: functional, cell-based
Paired box protein Pax-8 = Paired box protein Pax-8 (Homo sapiens, UniProt Q06710); experiment: inhibitors of PAX8-driven TPO luciferase reporter, dose response, RMG-I cells, cherry-pick (AID 687027); assay type: functional, cell-based;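 note: luciferase reporter driven by Pax8 target thyroperoxidase promoter measured by SteadyGlo luminescence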
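Throughout, for EC50: target is galanin receptor GalR3 read with a cAMP biosensor in HEK293 cells.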

Sequence of Disintegrin and metalloproteinase domain-containing protein 17 (P78536 whole entry, the tested form may be a part): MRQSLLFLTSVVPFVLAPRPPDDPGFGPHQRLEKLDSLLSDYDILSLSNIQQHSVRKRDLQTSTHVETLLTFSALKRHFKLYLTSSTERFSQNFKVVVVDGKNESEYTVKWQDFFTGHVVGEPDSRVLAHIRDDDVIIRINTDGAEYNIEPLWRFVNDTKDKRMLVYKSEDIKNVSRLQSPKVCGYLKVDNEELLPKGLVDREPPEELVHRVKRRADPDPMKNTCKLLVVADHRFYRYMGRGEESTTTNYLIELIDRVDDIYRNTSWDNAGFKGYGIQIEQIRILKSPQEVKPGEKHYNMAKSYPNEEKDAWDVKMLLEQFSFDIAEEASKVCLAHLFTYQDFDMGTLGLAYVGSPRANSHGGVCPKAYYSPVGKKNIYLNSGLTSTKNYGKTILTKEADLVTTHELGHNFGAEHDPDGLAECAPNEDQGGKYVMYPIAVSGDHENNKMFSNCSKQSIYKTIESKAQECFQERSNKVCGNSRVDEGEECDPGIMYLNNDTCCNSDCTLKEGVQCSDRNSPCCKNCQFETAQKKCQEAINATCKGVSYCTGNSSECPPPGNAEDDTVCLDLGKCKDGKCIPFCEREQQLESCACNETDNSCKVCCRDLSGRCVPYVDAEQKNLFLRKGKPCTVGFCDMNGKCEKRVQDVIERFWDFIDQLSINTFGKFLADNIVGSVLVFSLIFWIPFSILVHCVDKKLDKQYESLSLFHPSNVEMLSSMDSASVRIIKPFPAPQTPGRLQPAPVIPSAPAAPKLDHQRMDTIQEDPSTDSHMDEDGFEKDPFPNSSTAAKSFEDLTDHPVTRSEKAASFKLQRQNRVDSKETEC
T5 sequence (P49327 whole entry, the tested form may be a part): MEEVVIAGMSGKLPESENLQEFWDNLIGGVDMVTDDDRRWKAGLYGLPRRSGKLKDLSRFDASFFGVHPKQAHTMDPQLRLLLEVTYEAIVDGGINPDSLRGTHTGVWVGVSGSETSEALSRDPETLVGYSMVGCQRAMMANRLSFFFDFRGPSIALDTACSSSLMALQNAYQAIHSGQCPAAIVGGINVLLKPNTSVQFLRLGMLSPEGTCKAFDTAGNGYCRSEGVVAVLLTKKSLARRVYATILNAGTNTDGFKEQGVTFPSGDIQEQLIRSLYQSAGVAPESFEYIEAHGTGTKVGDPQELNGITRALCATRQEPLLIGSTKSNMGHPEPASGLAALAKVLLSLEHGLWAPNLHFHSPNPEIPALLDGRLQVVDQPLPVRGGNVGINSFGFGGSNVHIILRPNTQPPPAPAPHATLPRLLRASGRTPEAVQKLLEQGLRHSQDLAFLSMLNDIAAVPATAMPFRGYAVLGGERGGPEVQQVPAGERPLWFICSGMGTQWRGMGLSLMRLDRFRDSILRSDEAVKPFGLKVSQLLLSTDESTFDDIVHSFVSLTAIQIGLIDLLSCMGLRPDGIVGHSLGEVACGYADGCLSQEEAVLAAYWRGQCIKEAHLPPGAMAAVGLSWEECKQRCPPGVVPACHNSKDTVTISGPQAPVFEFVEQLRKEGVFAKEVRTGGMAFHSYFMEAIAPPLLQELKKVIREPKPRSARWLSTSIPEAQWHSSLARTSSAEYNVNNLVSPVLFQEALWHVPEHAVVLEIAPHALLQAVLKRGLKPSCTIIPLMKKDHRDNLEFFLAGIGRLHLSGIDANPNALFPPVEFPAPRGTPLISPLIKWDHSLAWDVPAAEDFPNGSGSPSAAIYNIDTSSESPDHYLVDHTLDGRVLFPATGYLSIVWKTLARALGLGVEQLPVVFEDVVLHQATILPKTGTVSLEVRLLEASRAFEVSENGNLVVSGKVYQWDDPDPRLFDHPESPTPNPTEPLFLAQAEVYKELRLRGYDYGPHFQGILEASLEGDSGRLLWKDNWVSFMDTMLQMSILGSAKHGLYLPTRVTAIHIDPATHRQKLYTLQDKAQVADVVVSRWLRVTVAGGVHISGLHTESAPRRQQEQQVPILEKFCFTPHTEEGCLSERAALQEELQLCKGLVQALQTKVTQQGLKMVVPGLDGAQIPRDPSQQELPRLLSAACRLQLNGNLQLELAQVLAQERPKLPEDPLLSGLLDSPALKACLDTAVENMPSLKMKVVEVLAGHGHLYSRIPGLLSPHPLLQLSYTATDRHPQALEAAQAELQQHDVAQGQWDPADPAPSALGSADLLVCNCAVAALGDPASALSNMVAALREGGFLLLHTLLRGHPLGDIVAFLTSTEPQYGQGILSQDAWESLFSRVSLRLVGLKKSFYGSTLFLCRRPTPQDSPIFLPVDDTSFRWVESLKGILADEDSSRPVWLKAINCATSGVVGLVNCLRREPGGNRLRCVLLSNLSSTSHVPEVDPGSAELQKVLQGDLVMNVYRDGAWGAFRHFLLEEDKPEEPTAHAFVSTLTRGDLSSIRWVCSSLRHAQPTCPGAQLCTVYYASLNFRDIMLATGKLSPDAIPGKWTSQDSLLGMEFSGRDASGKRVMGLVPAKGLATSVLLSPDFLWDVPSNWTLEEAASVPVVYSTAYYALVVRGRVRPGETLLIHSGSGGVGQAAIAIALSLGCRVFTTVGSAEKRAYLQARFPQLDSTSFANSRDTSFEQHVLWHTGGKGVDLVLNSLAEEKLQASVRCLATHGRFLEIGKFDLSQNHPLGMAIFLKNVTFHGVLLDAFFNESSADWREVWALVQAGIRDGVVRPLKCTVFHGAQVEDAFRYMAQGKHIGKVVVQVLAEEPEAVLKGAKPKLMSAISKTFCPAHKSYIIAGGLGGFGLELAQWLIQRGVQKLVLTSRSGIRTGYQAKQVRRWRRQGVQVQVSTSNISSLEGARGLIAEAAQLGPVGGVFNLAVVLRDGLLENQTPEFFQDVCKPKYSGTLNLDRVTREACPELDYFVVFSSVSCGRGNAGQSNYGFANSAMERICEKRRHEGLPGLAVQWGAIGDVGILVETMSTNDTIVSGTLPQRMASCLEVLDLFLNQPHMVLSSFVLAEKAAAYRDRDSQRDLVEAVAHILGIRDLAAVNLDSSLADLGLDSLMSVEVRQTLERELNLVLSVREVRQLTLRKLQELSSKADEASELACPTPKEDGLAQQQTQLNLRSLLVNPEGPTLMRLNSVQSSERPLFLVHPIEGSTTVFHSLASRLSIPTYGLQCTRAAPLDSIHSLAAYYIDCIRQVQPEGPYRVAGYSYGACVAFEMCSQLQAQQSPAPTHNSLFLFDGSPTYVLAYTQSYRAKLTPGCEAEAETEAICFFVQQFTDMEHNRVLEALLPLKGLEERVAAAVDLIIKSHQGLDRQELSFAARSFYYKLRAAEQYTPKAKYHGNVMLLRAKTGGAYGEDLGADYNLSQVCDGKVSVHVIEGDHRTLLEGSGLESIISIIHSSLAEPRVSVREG
Sequence of Paired box protein Pax-8 (Q06710 whole entry): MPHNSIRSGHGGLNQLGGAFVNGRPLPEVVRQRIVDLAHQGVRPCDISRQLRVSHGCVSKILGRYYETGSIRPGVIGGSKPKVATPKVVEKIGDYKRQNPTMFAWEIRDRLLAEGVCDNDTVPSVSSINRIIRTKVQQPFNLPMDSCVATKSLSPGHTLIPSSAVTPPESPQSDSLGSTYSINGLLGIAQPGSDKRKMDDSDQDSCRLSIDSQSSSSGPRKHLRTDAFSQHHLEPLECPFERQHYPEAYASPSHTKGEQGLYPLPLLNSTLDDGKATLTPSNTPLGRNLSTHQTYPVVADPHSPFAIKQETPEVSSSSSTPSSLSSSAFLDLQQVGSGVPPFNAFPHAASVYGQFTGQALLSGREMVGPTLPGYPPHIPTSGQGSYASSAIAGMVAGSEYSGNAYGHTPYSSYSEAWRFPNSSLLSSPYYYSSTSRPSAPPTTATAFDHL

**Q.** With `CC(C)N(C)S(=O)(=O)c1ccc(NC(=O)CSC(=S)N2CCCC2)cc1` as the compound, how does the AC50 [1] read?
**A.** > 100 µM (inactive)

**Q.** For `NC(=O)c1ccc(N2CCN(S(=O)(=O)c3cccs3)CC2)c([N+](=O)[O-])c1`, which AC50 [2] is on record?
**A.** 2.54 µM (active)

**Q.** And the AC50 [3]?
**A.** 305 nM (active)

**Q.** And the AC50 [4]?
**A.** 6.21 µM (active)

**Q.** And the EC50 (cells)?
**A.** > 29.9 µM (inactive)

**Q.** And the AC50 (INS1)?
**A.** 3.67 µM (active)

**Q.** What about the IC50 (Galanin receptor type 3) of the same compound?
**A.** 1.09 µM (active)

**Q.** With `Clc1ccccc1N=Nc1ccccn1` as the compound, how does the IC50 [5] read?
**A.** > 100 µM (active)

**Q.** What about the IC50 [6] of the same compound?
**A.** > 128 µM (inactive)

**Q.** Which IC50 [7] does the source give for `COc1cccc(C(=O)c2c(-c3ccccc3)ncc3cc(OC)c(OC)cc23)c1` here?
**A.** > 69.4 µM (inactive)

**Q.** And the IC50 [8]?
**A.** > 69.4 µM (inactive)

**Q.** With `O=C(CCCN1C(=O)C(=Cc2ccc3c(c2)OCO3)SC1=S)Nc1ccc(C(=O)O)c(O)c1` as the compound, how does the IC50 [9] read?
**A.** 80 µM (inactive)

**Q.** For `CC(Cc1ccccc1)=NNS(=O)(=O)c1ccc([N+](=O)[O-])cc1`, which IC50 (Fatty acid synthase [10]) is on record?
**A.** 12.7 µM (active)

**Q.** And the IC50 (Fatty acid synthase [11])?
**A.** 9.15 µM (active)

**Q.** Which IC50 [7] does the source give for `Cc1ccc(S(=O)(=O)N2CCC(=O)N([C@H](COC(=O)Nc3ccccc3)Cc3ccccc3)CC2)cc1` here?
**A.** > 7.72 µM (active)

**Q.** What about the IC50 [8] of the same compound?
**A.** > 69.4 µM (inactive)

**Q.** Which AC50 [12] does the source give for `C[C@@H]1CN([C@H](C)CO)C(=O)c2c(c3ccccc3n2C)-c2ccccc2CO[C@H]1CN(C)S(=O)(=O)c1cccc(F)c1` here?
**A.** 4.51 µM (active)

**Q.** And the AC50 (Paired box protein Pax-8)?
**A.** 19.2 µM (active)

**Q.** Which IC50 [7] does the source give for `Cc1cccc(NC(=O)CSc2nnc(SCc3ccc(Cl)cc3)s2)c1` here?
**A.** > 69.4 µM (inactive)

**Q.** What about the IC50 [8] of the same compound?
**A.** > 69.4 µM (inactive)

**Q.** With `Cc1ccc(S(=O)(=O)/N=C(\Sc2ccccc2)c2ccccc2)cc1` as the compound, how does the IC50 (Fatty acid synthase [10]) read?
**A.** 54 µM (inactive)

**Q.** What about the IC50 (Fatty acid synthase [11]) of the same compound?
**A.** 11 µM (active)
